# Biological target: T1, Musashi-1 (MSI1) (Mus musculus, UniProt Q61474)
# T1 sequence (Q61474 20-107): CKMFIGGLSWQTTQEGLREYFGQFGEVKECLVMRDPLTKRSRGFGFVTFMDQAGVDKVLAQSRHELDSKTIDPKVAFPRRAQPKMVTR
# Test: SPR on immobilized GB1-RBD1, 1H-15N HSQC NMR titration
# Type: binding
smiles,measurement,value
"Cc1cc2c(C(C)C)c(O)c(O)c(C=O)c2c(O)c1-c1c(C)cc2c(C(C)C)c(O)c(O)c(C=O)c2c1O [(–)-G, (–)-gossypol]",Ki,476 ± 273 nM
